Read-outs that look alike come from different tables or passages of the source.
Legend:
LCK tyrosine kinase = LCK tyrosine kinase (Homo sapiens, UniProt P06239, C224D/P223M); assay: LCK spectrophotometric assay; type: biochemical
Procedure: The spectrophotometric assay was carried out as described above for VEGF-R2, except for the following changes in concentration: LCK = 60 nM, MgCl2 = 0 mM, poly(E4Y1) = 20 mM.

human FGF-R1 = human FGF-R1 (Homo sapiens, UniProt P11362, C488A/C584S/L457V); assay: FGF-R spectrophotometric assay; type: biochemical
Sequence of human FGF-R1 (P11362 456-766 L457V/C488A/C584S): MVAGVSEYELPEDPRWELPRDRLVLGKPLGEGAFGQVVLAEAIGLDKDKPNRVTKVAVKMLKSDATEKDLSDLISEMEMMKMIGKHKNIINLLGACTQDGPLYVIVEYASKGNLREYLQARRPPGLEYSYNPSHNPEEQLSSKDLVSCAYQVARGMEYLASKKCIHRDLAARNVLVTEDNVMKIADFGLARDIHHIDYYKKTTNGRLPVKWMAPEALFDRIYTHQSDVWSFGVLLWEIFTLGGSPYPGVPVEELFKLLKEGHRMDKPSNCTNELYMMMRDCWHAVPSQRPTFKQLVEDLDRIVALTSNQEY
Procedure: The spectrophotometric assay was carried out as described above for VEGF-R2, except for the following changes in concentration: FGF-R = 50 nM, ATP = 2 mM, and poly(E4Y1) =15 mM.

[1] = system: human umbilical vein endothelial cells (HUVEC); assay: HUVEC proliferation assay (VEGF-stimulated, MTT); type: cell-based; details: for IC50: Homo sapiens, HUVEC, Table 1
Procedure: This assay determines the ability of a test compound to inhibit the growth factor-stimulated proliferation of human umbilical vein endothelial cells ("HUVEC"). HUVEC cells (passage 3-4, Clonetics, Corp.) were thawed into EGM2 culture medium (Clonetics Corp) in T75 flasks. Fresh EGM2 medium was added to the flasks 24 hours later. Four or five days later, cells were exposed to another culture medium (F12K medium supplemented with 10% fetal bovine serum (FBS), 60 µg/mL endothelial cell growth supplement (ECGS), and 0.1 mg/mL heparin). Exponentially-growing HUVEC cells were used in experiments thereafter. Ten to twelve thousand HUVEC cells were plated in 96-well dishes in 100 µl of rich, culture medium (described above). The cells were allowed to attach for 24 hours in this medium. The medium was then removed by aspiration and 105 µl of starvation media (F12K+1% FBS) was added to each well. After 24 hours, 15 µl of test agent dissolved in 1% DMSO in starvation medium or this vehicle alone was added into each treatment well; the final DMSO concentration was 0.1%. One hour later, 30 µl of VEGF (30 ng/mL) in starvation media was added to all wells except those containing untreated controls; the final VEGF concentration was 6 ng/mL. Cellular proliferation was quantified 72 hours later by MTT dye reduction, at which time cells were exposed for 4 hours MTT (Promega Corp.).

[2] = mouse, in vivo, po
[3] = read-out: Lck-P* (% inhibition)
[4] = Table 1, compound concentration 1 µM, read-out: FGF-P* (% inhibition)
[5] = Table 1, compound concentration 1 µM, read-out: Lck-P* (% inhibition)
[6] = + albumin, read-out: HUVEC + albumin IC50

Sequence of LCK tyrosine kinase (P06239 223-509 P223M/C224D): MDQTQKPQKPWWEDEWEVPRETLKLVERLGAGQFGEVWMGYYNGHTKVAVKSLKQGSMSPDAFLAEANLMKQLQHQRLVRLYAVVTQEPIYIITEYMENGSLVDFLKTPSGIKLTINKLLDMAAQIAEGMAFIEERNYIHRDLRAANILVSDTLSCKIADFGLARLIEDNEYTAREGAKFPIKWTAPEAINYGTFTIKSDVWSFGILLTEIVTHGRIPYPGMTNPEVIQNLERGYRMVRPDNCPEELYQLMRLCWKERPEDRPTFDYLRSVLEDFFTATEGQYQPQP

Structure (SMILES): C=CCOc1cc(-c2ccc3c(/C=C/c4ccc(OC)c(OC)c4)n[nH]c3c2)ccc1O [1(c), 3-[E-2-(3,4-Dimethoxy-phenyl)vinyl]-6-(3-allyloxy-4-hydroxyphenyl)-1H-indazole]
- inhibition at 1 µM (LCK tyrosine kinase; [3]): 46%

Structure (SMILES): COc1cc(-c2ccc3c(-c4ccccc4)n[nH]c3c2)ccc1O [2(b), 3-phenyl-6-(3-methoxy-4-hydroxy-phenyl)-1H-indazole]
- Ki (human FGF-R1; read-out: FGF-P* (Ki, cell in µM), Table 1): 228 µM

Structure (SMILES): Oc1cccc(Oc2ccc3c(/C=C/c4ccccc4)n[nH]c3c2)c1 [9(a), 3-(E-styryl)-6-[3-hydroxyphenoxy]-1H-indazole]
- IC50 ([1]; read-out: HUVEC IC50): 870 nM

Structure (SMILES): Cc1cnc(C(=O)Nc2cccc(N(C)c3ccc4c(/C=C/c5ccccc5)n[nH]c4c3)c2)s1 [12(d), 5-Methyl-thiazole-2-carboxylic acid {3-[methyl-(3-styryl-1H-indazol-6-yl)-amino]-phenyl)-amide]
- inhibition at 1 µM (human FGF-R1; [4]): 61%
- inhibition at 1 µM (LCK tyrosine kinase; [5]): 31%
- IC50 ([1]; read-out: HUVEC IC50): 8.1 nM

Structure (SMILES): CN(C)c1cccc(C(=O)Nc2cccc(N(C)c3ccc4c(/C=C/c5ccc6c(c5)OCO6)n[nH]c4c3)c2)c1 [16(c), N-(3-{[3-(2-Benzo[1,3]dioxol-5-yl-vinyl)-1H-indazol-6-yl]-methyl-amino}-phenyl)-3-dimethylamino-benzamide]
- IC50 ([1]; read-out: HUVEC IC50): 100 to 1000 nM

Structure (SMILES): CN(c1cccc(NC(=O)c2cccc(C(F)(F)F)c2)c1)c1ccc2c(/C=C/c3ccc4c(c3)OCO4)n[nH]c2c1 [16(d), N-(3-{[3-(2-Benzo[1,3]dioxol-5-yl-vinyl)-1H-indazol-6-yl]-methyl-amino}-phenyl)-3-trifluoromethyl-benzamide]
- inhibition at 1 µM (human FGF-R1; [4]): 90%
- inhibition at 1 µM (LCK tyrosine kinase; [5]): 33%
- IC50 ([1]; read-out: HUVEC IC50): 11 nM

Structure (SMILES): CN(c1cccc(NC(=O)c2ccc(O)c(C(C)(C)C)c2)c1)c1ccc2c(/C=C/c3ccc4c(c3)OCO4)n[nH]c2c1 [16(f)]
- IC50 ([1]; read-out: HUVEC IC50): > 30 nM

Structure (SMILES): O=C(Nc1cccc(C(=O)c2ccc3c(/C=C/c4ccccc4)n[nH]c3c2)c1)OCc1ccccc1 [19(c), [3-(3-Styryl-1H-indazole-6-carbonyl)-phenyl]-carbamic acid benzyl ester]
- inhibition at 1 µM (human FGF-R1; [4]): 68%
- inhibition at 1 µM (LCK tyrosine kinase; [5]): 50%
- IC50 ([1]; read-out: HUVEC IC50): 17 nM

Structure (SMILES): Cc1cncc(C(=O)Nc2cccc(C(=O)c3ccc4c(/C=C/c5ccccc5)n[nH]c4c3)c2)c1 [19(e), 6-[3-(5-methylpyridin-3-ylcarboxamide)benzoyl]-3-E-styryl-1H-indazole]
- IC50 ([1]; read-out: HUVEC IC50): > 300 nM

Structure (SMILES): O=C(Nc1cccc(Sc2ccc3c(/C=C/c4ccccc4)n[nH]c3c2)c1)c1ccccc1 [20(b), 6-(3-(Benzoylamido)-phenylsulfanyl)-3-styryl-1H-indazole]
- inhibition at 1 µM (human FGF-R1; [4]): 28%
- inhibition at 1 µM (LCK tyrosine kinase; [5]): 23%
- IC50 ([1]; read-out: HUVEC IC50): 8.2 nM

Structure (SMILES): C=C(c1cccc(NC(=O)OCc2ccccc2)c1)c1ccc2c(/C=C/c3ccccc3)n[nH]c2c1 [22(c)]
- IC50 ([1]; read-out: HUVEC IC50): 38 nM

Structure (SMILES): COc1cc(O)ccc1-c1ccc2c(-c3nc4ccccc4[nH]3)n[nH]c2c1 [24(d), 3-1H-Benzoimidazol-2-yl-6-(4-hydroxy-2-methoxyphenyl)-1H-indazole]
- inhibition at 1 µM (human FGF-R1; read-out: FGF* (% inhibition)): 66%
- inhibition at 1 µM (LCK tyrosine kinase; read-out: Lck* (% inhibition)): 51%

Structure (SMILES): Cc1cc(C(=O)Nc2cc(Nc3ccc4c(/C=C/c5ccccn5)n[nH]c4c3)c(F)cc2C)n(C)n1 [48 (b)]
- AUCleast ([2]; 25 mg/kg, pH 2.3): 2191 ng·h/mL
- T1/2 ([2]; 25 mg/kg, pH 2.3): 4 h

Structure (SMILES): Cc1cc(C(=O)Nc2cc(Nc3ccc4c(/C=C/c5ccccn5)n[nH]c4c3)ccc2F)n(C)n1 [49 (a)]
- AUCleast ([2]; 25 mg/kg, pH 2.3): 712 ng·h/mL

Structure (SMILES): Cc1cc(C(=O)Nc2cc(Nc3ccc4c(/C=C/c5ccccn5)n[nH]c4c3)ccc2C)n(C)n1 [49 (b)]
- AUCleast ([2]; 25 mg/kg, pH 2.3): 33750 ng·h/mL

Structure (SMILES): CCn1nc(C)cc1C(=O)Nc1cccc(C(=O)c2ccc3c(/C=C/c4ccccn4)n[nH]c3c2)c1.Cl [59 (a)]
- AUCleast ([2]; 8 mg/kg): 7707 ng·h/mL
- T1/2 ([2]; 8 mg/kg): 1.5 h
- AUCleast ([2]; 40 mg/kg): 57240 ng·h/mL
- T1/2 ([2]; 40 mg/kg): 2.4 h
- AUCleast ([2]; 200 mg/kg): 156153 ng·h/mL
- T1/2 ([2]; 200 mg/kg): 9.4 h

Structure (SMILES): Cc1cc(C(=O)Nc2cccc(C(=O)c3ccc4c(/C=C/c5ccccn5)n[nH]c4c3)c2)n(C)n1.Cl [59 (b)]
- AUCleast ([2]; 50 mg/kg): 276467 ng·h/mL

Structure (SMILES): CCn1nc(C)cc1C(=O)Nc1cc(Nc2ccc3c(/C=C/c4ccccn4)n[nH]c3c2)c(F)cc1C.Cl [59 (c)]
- AUCleast ([2]; 25 mg/kg): 327135 ng·h/mL

Structure (SMILES): Cc1cc(C(=O)Nc2cc(Nc3ccc4c(/C=C/c5ccccn5)n[nH]c4c3)ccc2F)n(C)n1.Cl [59 (d)]
- AUCleast ([2]; 8 mg/kg): > 24696 ng·h/mL
- AUCleast ([2]; 40 mg/kg): > 32297 ng·h/mL
- AUCleast ([2]; 200 mg/kg): > 123206 ng·h/mL

Structure (SMILES): CCn1nc(C)cc1C(=O)Nc1cccc(Oc2ccc3c(/C=C/c4ccccn4)n[nH]c3c2)c1.Cl [59 (e)]
- AUCleast ([2]; 25 mg/kg): 12510 ng·h/mL
- T1/2 ([2]; 25 mg/kg): 21 h

Structure (SMILES): O=C(Nc1cccc(Nc2ccc3c(/C=C/c4ccccc4)n[nH]c3c2)c1)c1ccccc1 [Example 13, N-[3-(3-Styryl-1H-indazol-6-ylamino)-phenyl)-benzamide]
- inhibition at 1 µM (human FGF-R1; read-out: FGF-P* (% inhibition)): 74%
- inhibition at 1 µM (LCK tyrosine kinase; [3]): 61%
- IC50 [1, 6]: 28 nM
- IC50 ([1]; read-out: HUVEC IC50): 3.9 nM

Structure (SMILES): NC(=O)c1ccccc1Sc1ccc2c(/C=C/c3ccccn3)n[nH]c2c1 [H-X1]
- % inhibition of the proliferation of HUVEC, 0.5 nM ([1]; Library Table II, Y = S (reference Example), nominal concentration 0.5 nM, crude library reaction mixtures, >50% considered significant): 9%
- % inhibition of the proliferation of HUVEC, 2 nM ([1]; Library Table II, Y = S (reference Example), nominal concentration 2 nM, crude library reaction mixtures, >50% considered significant): 30%

Structure (SMILES): COc1cc(O)ccc1-c1ccc2c(-c3nc4c(SCCO)cccc4[nH]3)n[nH]c2c1 [Reference Example 25(f), 3-[4-(2-hydroxyethylsulfanyl)-1H-benzoimidazol-2-yl)-6-(2-methoxy-4-hydroxyphenyl)-1H-indazole]
- inhibition at 1 µM (human FGF-R1; read-out: FGF* (% inhibition)): 56%
- inhibition at 1 µM (LCK tyrosine kinase; read-out: Lck* (% inhibition)): 58%

Structure (SMILES): CNC(=O)c1cccc2[nH]c(-c3n[nH]c4cc(-c5ccc(O)cc5OC)ccc34)nc12 [Reference Example 25(j), 3-(4-methylcarbamoyl-1H-benzoimidazol-2-yl)-6-(2-methoxy-4-hydroxy-phenyl)-1H-indazole]
- inhibition at 1 µM (human FGF-R1; read-out: FGF* (% inhibition)): 70%

Structure (SMILES): CC(=O)N1CCC(C(=O)Nc2cccc(Oc3ccc4c(/C=C/c5ccc(Cl)cc5)n[nH]c4c3)c2)CC1 [Reference Example 30(b), 6-[3-(1-acetylpiperidin-4-ylcarboxamido)phenoxy]-3-E-[2-(4-chlorophenyl)ethenyl]-1H-indazole]
- IC50 ([1]; read-out: HUVEC IC50): 90 nM

Structure (SMILES): O=C(Nc1cccc(Oc2ccc3c(/C=C/c4ccco4)n[nH]c3c2)c1)c1ccccc1 [Reference Example 30(c), 6-[3-benzamidophenoxy]-3-[2-(fur-2-yl)ethenyl]-1H-indazole]
- inhibition at 1 µM (human FGF-R1; [4]): 82%
- inhibition at 1 µM (LCK tyrosine kinase; [5]): 44%
- IC50 [1, 6]: 21 nM
- IC50 ([1]; read-out: HUVEC IC50): 2.5 nM

Structure (SMILES): O=C(Nc1cccc(Oc2ccc3c(/C=C/c4ccccc4)n[nH]c3c2)c1)c1cccc2[nH]ccc12 [Reference Example 30(d), 6-[3-(indol-4-ylcarboxamido)phenoxy]-3-E-stryrylindazole]
- IC50 [1, 6]: 3.8 nM

Structure (SMILES): CCn1nc(C)cc1C(=O)Nc1cccc(Oc2ccc3c(/C=C/c4ccccc4)n[nH]c3c2)c1 [Reference Example 30(e), 6-[3-((1-Ethyl-3-methyl-1H-pyrazol-5-yl)carboxamido)phenoxy]-3-E-stryrylindazole]
- inhibition at 1 µM (human FGF-R1; [4]): 92%
- inhibition at 1 µM (LCK tyrosine kinase; [5]): 62%
- IC50 [1, 6]: 29 nM

Structure (SMILES): O=C(NNC(=O)c1ccccc1Sc1ccc2c(/C=C/c3ccccn3)n[nH]c2c1)c1cccs1 [Reference Example 35(m), 6-[2-((Thien-2-ylhydrazido)carbonyl)phenylsulfanyl]-3-E-[2-(pyridin-2-yl)ethenyl]-1H-indazole]
- inhibition at 1 µM (human FGF-R1; [4]): 82%
- inhibition at 1 µM (LCK tyrosine kinase; [5]): 61%
- IC50 [1, 6]: 35 nM

Structure (SMILES): CC(C)(C)c1ccc(C(=O)Nc2cccc(C(=O)c3ccc4c(/C=C/c5ccccn5)n[nH]c4c3)c2)cc1 [Reference Example 41(s), 6-[3-(4-t-butylbenzamido)benzoyl}-3-E-[2-(pyridin-2-yl)ethenyl]-1H-indazole]
- inhibition at 1 µM (human FGF-R1; [4]): 86%
- inhibition at 1 µM (LCK tyrosine kinase; [5]): 53%

Structure (SMILES): COc1cc(C(=O)Nc2cccc(C(=O)c3ccc4c(/C=C/c5ccccn5)n[nH]c4c3)c2)cc(Cl)n1 [Reference Example 41(u), 6-[3-((2-chloro-6-methoxypyridin-4-yl)carboxamido)benzoyl]-3-E-[2-(pyridin-2-yl)ethenyl]-1H-indazole]
- inhibition at 1 µM (human FGF-R1; [4]): 74%
- inhibition at 1 µM (LCK tyrosine kinase; [5]): 54%
- IC50 [1, 6]: 7.9 nM
